Measured values published in ChEMBL document CHEMBL4673375, “Discovery of a series of 1H-pyrrolo[2,3-b]pyridine compounds as potent TNIK inhibitors” (Bioorg Med Chem Lett, 2021).
pIC50: −log10 of the molar value. Calls of active or inactive are those of the source. No cut-off for these calls is given here.

Experiments:
[1] = biological target: T1, TRAF2 and NCK-interacting protein kinase (Homo sapiens, UniProt Q9UKE5); test: Inhibition of TNIK (unknown origin)
Target sequence in this assay (Q9UKE5 whole entry): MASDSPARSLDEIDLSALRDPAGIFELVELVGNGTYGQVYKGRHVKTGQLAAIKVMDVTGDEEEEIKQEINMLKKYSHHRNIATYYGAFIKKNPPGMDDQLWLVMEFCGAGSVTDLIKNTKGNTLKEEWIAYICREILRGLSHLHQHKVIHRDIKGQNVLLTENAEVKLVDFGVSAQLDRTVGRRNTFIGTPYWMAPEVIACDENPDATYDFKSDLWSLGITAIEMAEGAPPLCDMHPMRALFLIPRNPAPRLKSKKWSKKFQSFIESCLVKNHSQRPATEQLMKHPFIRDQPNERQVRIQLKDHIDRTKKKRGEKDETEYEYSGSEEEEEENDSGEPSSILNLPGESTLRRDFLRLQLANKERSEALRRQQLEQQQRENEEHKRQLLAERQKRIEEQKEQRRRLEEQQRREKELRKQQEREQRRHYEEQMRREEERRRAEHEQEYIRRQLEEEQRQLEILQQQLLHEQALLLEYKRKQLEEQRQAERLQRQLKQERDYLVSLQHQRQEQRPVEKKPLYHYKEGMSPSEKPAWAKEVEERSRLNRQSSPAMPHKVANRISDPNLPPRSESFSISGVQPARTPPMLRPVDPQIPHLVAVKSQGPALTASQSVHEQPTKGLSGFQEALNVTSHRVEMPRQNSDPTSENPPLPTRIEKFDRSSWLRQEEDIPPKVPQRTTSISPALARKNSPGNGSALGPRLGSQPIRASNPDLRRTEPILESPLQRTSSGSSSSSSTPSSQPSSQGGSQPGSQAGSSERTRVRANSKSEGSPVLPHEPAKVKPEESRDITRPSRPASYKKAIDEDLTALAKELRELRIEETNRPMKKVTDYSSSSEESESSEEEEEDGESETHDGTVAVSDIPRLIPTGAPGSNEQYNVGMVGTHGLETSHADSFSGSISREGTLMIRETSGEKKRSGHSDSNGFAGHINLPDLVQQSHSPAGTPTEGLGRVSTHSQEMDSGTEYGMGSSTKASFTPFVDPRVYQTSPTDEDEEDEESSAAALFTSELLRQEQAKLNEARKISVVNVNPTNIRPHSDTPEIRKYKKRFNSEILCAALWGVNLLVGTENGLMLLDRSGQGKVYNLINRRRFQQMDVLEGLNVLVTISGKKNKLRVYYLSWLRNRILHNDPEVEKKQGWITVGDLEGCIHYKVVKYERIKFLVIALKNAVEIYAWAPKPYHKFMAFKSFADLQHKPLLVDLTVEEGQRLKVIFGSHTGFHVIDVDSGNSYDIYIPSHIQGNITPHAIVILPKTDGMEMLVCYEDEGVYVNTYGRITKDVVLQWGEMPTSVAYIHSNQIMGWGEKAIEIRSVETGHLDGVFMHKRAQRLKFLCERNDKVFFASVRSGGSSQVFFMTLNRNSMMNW

[2] = biological target: T1, TRAF2 and NCK-interacting protein kinase; test: Inhibition of TNIK in PMA/anti-CD3 antibody-stimulated human Jurkat cells assessed as IL2 level at 10 uM incubated for 24 hrs by ELISA; assay type: cell-based
Target sequence in this assay (Q9UKE5 whole entry, looked up): as the sequence (Q9UKE5 whole entry) above

[3] = biological target: T1, TRAF2 and NCK-interacting protein kinase; test: Inhibition of TNIK in human Jurkat cells assessed as reduction in PMA/anti-CD3 antibody-induced IL2 secretion at 1 uM incubated for 24 hrs by ELISA; assay type: cell-based
Target sequence in this assay (Q9UKE5 whole entry, looked up): as the sequence (Q9UKE5 whole entry) above

[4] = biological target: T1, TRAF2 and NCK-interacting protein kinase; test: Inhibition of TNIK in human Jurkat cells assessed as reduction in PMA/anti-CD3 antibody-induced IL2 level incubated for 24 hrs by ELISA; assay type: cell-based; settings: dose 1-10 µM
Target sequence in this assay (Q9UKE5 whole entry, looked up): as the sequence (Q9UKE5 whole entry) above

| SMILES | pIC50 [1] | other results |
| --- | --- | --- |
| CN(C)C1CCN(C(=O)c2cccc(-c3cnc4[nH]cc(-c5cc(C#N)cc(NS(C)(=O)=O)c5)c4c3)c2)C1 (stereo not drawn) | 9.66 | – |
| CS(=O)(=O)Nc1cc(C#N)cc(-c2c[nH]c3ncc(-c4cccc(C(=O)NC5CC5)c4)cc23)c1 | 9.92 | – |
| CN1CCN(Cc2ccc(-c3cnc4[nH]cc(-c5cccc6ccccc56)c4c3)cc2)CC1 | 7.51 | – |
| CN1CCN(Cc2ccc(-c3cnc4[nH]cc(-c5ccc(Cl)cc5)c4c3)cc2)CC1 | 7.85 | – |
| CNC(=O)c1cccc(-c2c[nH]c3ncc(-c4ccc(CN5CCN(C)CC5)cc4)cc23)c1 | 7.57 | – |
| CS(=O)(=O)Nc1cc(C#N)cc(-c2c[nH]c3ncc(-c4cccc(C(=O)N5CCCC5)c4)cc23)c1 | 9.68 | – |
| CN1CCN(Cc2ccc(-c3cnc4[nH]cc(-c5cc(C#N)c6[nH]ncc6c5)c4c3)cc2)CC1 | 9.64 | Activity [2]: < 25 pg/mL; inhibition [3]: inactive |
| CC(C)(C(=O)O)c1ccc(-c2cnc3[nH]cc(-c4cc(C#N)cc(NS(C)(=O)=O)c4)c3c2)cc1 | 9.33 | inhibition [4]: Dose-dependent effect |
| CNC(=O)c1cccc(-c2cnc3[nH]cc(-c4cc(C#N)cc(NS(C)(=O)=O)c4)c3c2)c1 | 9.74 | – |
| CN1CCN(Cc2ccc(-c3cnc4[nH]cc(-c5ccc6[nH]cnc6c5)c4c3)cc2)CC1 | 8.42 | – |
| CN1CCN(C(=O)c2cccc(-c3cnc4[nH]cc(-c5cc(C#N)cc(NS(C)(=O)=O)c5)c4c3)c2)CC1 | 9.60 | – |
| CN1CCN(Cc2ccc(-c3cnc4[nH]cc(-c5cc(C#N)c(Cl)c(NS(C)(=O)=O)c5)c4c3)cc2)CC1 | 9.37 | inhibition [4]: Dose-dependent effect |
| CN1CCC(n2cc(-c3cnc4[nH]cc(-c5cc(C#N)c(Cl)c(NS(C)(=O)=O)c5)c4c3)cn2)CC1 | 9.17 | inhibition [4]: Dose-dependent effect; Activity [2]: < 25 pg/mL |
| CNC(=O)c1cccc(-c2cnc3[nH]cc(-c4cc(C#N)c(Cl)c(NS(C)(=O)=O)c4)c3c2)c1 | 9.52 | – |
| Cn1cc(-c2ccc(-c3cnc4[nH]cc(-c5cc(C#N)cc(NS(C)(=O)=O)c5)c4c3)cc2)cn1 | 9.10 | – |
| CN1CCN(Cc2ccc(-c3cnc4[nH]cc(-c5cc(C#N)cc(NS(C)(=O)=O)c5)c4c3)cc2)CC1 | 9.89 | inhibition [4]: Dose-dependent effect; Activity [2]: < 25 pg/mL |

| SMILES | pIC50 [1] | other results |
| --- | --- | --- |
| CN1CCN(Cc2ccc(-c3cnc4[nH]cc(-c5ccccc5)c4c3)cc2)CC1 | 7.85 | – |
| CN1CCN(Cc2ccc(-c3cnc4[nH]cc(-c5ccc6[nH]ncc6c5)c4c3)cc2)CC1 | 9.36 | – |
| CC(=O)Nc1cccc(-c2c[nH]c3ncc(-c4ccc(CN5CCN(C)CC5)cc4)cc23)c1 | 7.92 | – |
| CN1CCN(Cc2ccc(-c3cnc4[nH]cc(-c5cccc(C#N)c5)c4c3)cc2)CC1 | 9.04 | – |
| c1ccc(-c2cnc3[nH]cc(-c4ccccc4)c3c2)cc1 | 8.04 | – |
| CN1CCN(C(=O)c2ccc(-c3cnc4[nH]cc(-c5cc(C#N)cc(NS(C)(=O)=O)c5)c4c3)cc2)CC1 | 9.68 | – |
| CN1CCN(Cc2ccc(-c3cnc4[nH]cc(-c5ccc6[nH]ccc6c5)c4c3)cc2)CC1 | 8.28 | – |
| CN1CCN(Cc2ccc(-c3cnc4[nH]cc(-c5cccc(C(=O)N(C)C)c5)c4c3)cc2)CC1 | 7.37 | – |
| CN1CCN(Cc2ccc(-c3cnc4[nH]cc(-c5cccc(N)c5)c4c3)cc2)CC1 | 7.82 | – |
| CN1CCN(Cc2ccc(-c3cnc4[nH]cc(-c5cc(C#N)cc(NS(=O)(=O)C6CC6)c5)c4c3)cc2)CC1 | 9.72 | inhibition [4]: Dose-dependent effect; Activity [2]: < 25 pg/mL |
| CS(=O)(=O)Nc1cc(C#N)cc(-c2c[nH]c3ncc(-c4cccc(C(=O)N5CCCCC5)c4)cc23)c1 | 9.66 | – |
| CC(C)(Oc1ccc(-c2cnc3[nH]cc(-c4cc(C#N)cc(NS(C)(=O)=O)c4)c3c2)cc1)C(=O)O | 9.48 | inhibition [4]: Dose-dependent effect |
| CN1CCN(Cc2ccc(-c3cnc4[nH]cc(-c5ccc(F)cc5)c4c3)cc2)CC1 | 7.72 | – |
| CN1CCN(Cc2ccc(-c3cnc4[nH]cc(-c5cccc(NS(C)(=O)=O)c5)c4c3)cc2)CC1 | 8.15 | – |
| CN1CCN(Cc2ccc(-c3cnc4[nH]cc(-c5cnc6[nH]ncc6c5)c4c3)cc2)CC1 | 8.10 | – |
| CN1CCN(Cc2ccc(-c3cnc4[nH]cc(-c5ccc(NS(C)(=O)=O)cc5)c4c3)cc2)CC1 | 7.74 | – |
